Measured values published in PubChem BioAssay (NCI).
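1) Cells in 96-well plates. 2) Compound, 48 h, 5 concentrations. 3) Linear interpolation between surrounding doses. 4) Unreached endpoint = highest concentration. At the TGI there is no net growth.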

Experiments:
Experiment in all cases: DTP human tumour cell line panel, 48 h
[1] = tested on: IGROV1 ovarian
[2] = tested on: MCF7 breast
[3] = tested on: SW-620 colon
[4] = tested on: SF-295 CNS
[5] = tested on: SF-268 CNS
[6] = tested on: A498 renal
[7] = tested on: NCI-H460 lung
[8] = tested on: HCT-15 colon
[9] = tested on: 786-0 renal
[10] = tested on: NCI-H23 lung
[11] = tested on: OVCAR-4 ovarian
[12] = tested on: OVCAR-8 ovarian
[13] = tested on: HL-60(TB) leukemia
[14] = tested on: EKVX NSCLC
[15] = tested on: MALME-3M melanoma
[16] = tested on: SK-MEL-28 melanoma
[17] = tested on: LOX IMVI melanoma
[18] = tested on: RXF 393 renal
[19] = tested on: COLO 205 colon
[20] = tested on: UACC-257 melanoma
[21] = tested on: NCI/ADR-RES ovarian
[22] = tested on: SK-MEL-2 melanoma
[23] = tested on: NCI-H522 lung
[24] = tested on: A549 NSCLC
[25] = tested on: CAKI-1 renal
[26] = tested on: SK-OV-3 ovarian
[27] = tested on: OVCAR-3 ovarian
[28] = tested on: UO-31 renal
[29] = tested on: MDA-MB-231 breast
[30] = tested on: M14 melanoma
[31] = tested on: MDA-MB-435
[32] = tested on: HCC-2998 colon
[33] = tested on: U251 CNS
[34] = tested on: SF-539 CNS
[35] = tested on: ACHN renal
[36] = tested on: HOP-62 NSCLC
[37] = tested on: HS 578T breast
[38] = tested on: NCI-H226 lung
[39] = tested on: K-562 leukemia
[40] = tested on: MDA-N
[41] = tested on: UACC-62 melanoma
[42] = tested on: DU-145 prostate
[43] = tested on: SK-MEL-5 melanoma
[44] = tested on: T-47D breast
[45] = tested on: MOLT-4 leukemia
[46] = tested on: SNB-19 CNS
[47] = tested on: CCRF-CEM leukemia
[48] = tested on: SNB-75 CNS
[49] = tested on: OVCAR-5 ovarian
[50] = tested on: HT29 colon
[51] = tested on: PC-3 prostate
[52] = tested on: HOP-92 NSCLC
[53] = tested on: KM12 colon
[54] = tested on: RPMI-8226 leukemia
[55] = tested on: TK-10 renal
[56] = tested on: SR leukemia
[57] = tested on: BT-549 breast
[58] = tested on: HCT-116 colon
[59] = tested on: SN12C renal

SMILES: CCP(=O)(OC)C1=CCN(C(=O)OCC[Si](C)(C)C)CC1 (configuration not stated)
- TGI [1]: > 100 µM
- TGI [2]: > 100 µM
- TGI [3]: > 100 µM
- TGI [4]: > 100 µM
- TGI [5]: > 100 µM
- TGI [6]: > 100 µM
- TGI [7]: > 100 µM
- TGI [8]: > 100 µM
- TGI [9]: > 100 µM
- TGI [10]: > 100 µM
- TGI [11]: > 100 µM
- TGI [12]: > 100 µM
- TGI [13]: > 100 µM
- TGI [14]: > 100 µM
- TGI [15]: > 100 µM
- TGI [16]: > 100 µM
- TGI [17]: > 100 µM
- TGI [18]: > 100 µM
- TGI [19]: > 100 µM
- TGI [20]: > 100 µM
- TGI [21]: > 100 µM
- TGI [22]: > 100 µM
- TGI [23]: > 100 µM
- TGI [24]: > 100 µM
- TGI [25]: > 100 µM
- TGI [26]: > 100 µM
- TGI [27]: > 100 µM
- TGI [28]: > 100 µM
- TGI [29]: > 100 µM
- TGI [30]: > 100 µM
- TGI [31]: > 100 µM
- TGI [32]: > 100 µM
- TGI [33]: > 100 µM
- TGI [34]: > 100 µM
- TGI [35]: > 100 µM
- TGI [36]: > 100 µM
- TGI [37]: > 100 µM
- TGI [38]: > 100 µM
- TGI [39]: > 100 µM
- TGI [40]: > 100 µM
- TGI [41]: > 100 µM
- TGI [42]: > 100 µM
- TGI [43]: > 100 µM
- TGI [44]: > 100 µM
- TGI [45]: > 100 µM
- TGI [46]: > 100 µM
- TGI [47]: > 100 µM
- TGI [48]: > 100 µM
- TGI [49]: > 100 µM
- TGI [50]: > 100 µM
- TGI [51]: > 100 µM
- TGI [52]: > 100 µM
- TGI [53]: > 100 µM
- TGI [54]: > 100 µM
- TGI [55]: > 100 µM

SMILES: O=C(OCCN=c1c2ccccc2ccc2ccccc12)c1ccccc1
- TGI [1]: > 100 µM
- TGI [2]: > 100 µM
- TGI [3]: > 100 µM
- TGI [56]: > 100 µM
- TGI [4]: > 100 µM
- TGI [5]: > 100 µM
- TGI [7]: > 100 µM
- TGI [8]: > 100 µM
- TGI [9]: > 100 µM
- TGI [10]: > 100 µM
- TGI [11]: > 100 µM
- TGI [12]: > 100 µM
- TGI [13]: > 100 µM
- TGI [14]: > 100 µM
- TGI [15]: > 100 µM
- TGI [16]: > 100 µM
- TGI [17]: > 100 µM
- TGI [18]: > 100 µM
- TGI [19]: > 100 µM
- TGI [20]: > 100 µM
- TGI [21]: > 100 µM
- TGI [22]: > 100 µM
- TGI [24]: > 100 µM
- TGI [25]: > 100 µM
- TGI [57]: > 100 µM
- TGI [26]: > 100 µM
- TGI [58]: > 100 µM
- TGI [27]: > 100 µM
- TGI [28]: > 100 µM
- TGI [29]: > 100 µM
- TGI [30]: > 100 µM
- TGI [31]: > 100 µM
- TGI [32]: > 100 µM
- TGI [33]: > 100 µM
- TGI [34]: > 100 µM
- TGI [35]: > 100 µM
- TGI [59]: > 100 µM
- TGI [36]: > 100 µM
- TGI [37]: > 100 µM
- TGI [38]: > 100 µM
- TGI [39]: > 100 µM
- TGI [40]: > 100 µM
- TGI [41]: > 100 µM
- TGI [42]: > 100 µM
- TGI [43]: > 100 µM
- TGI [45]: > 100 µM
- TGI [46]: > 100 µM
- TGI [47]: > 100 µM
- TGI [48]: > 100 µM
- TGI [49]: > 100 µM
- TGI [50]: > 100 µM
- TGI [51]: > 100 µM
- TGI [52]: > 100 µM
- TGI [53]: > 100 µM
- TGI [54]: > 100 µM
- TGI [55]: > 100 µM

SMILES: CCC(O)(Cc1ccc(OC)cc1)c1ccc(OC)cc1 (configuration not stated)
- TGI [1]: > 100 µM
- TGI [2]: > 100 µM
- TGI [3]: > 100 µM
- TGI [56]: > 100 µM
- TGI [4]: > 100 µM
- TGI [5]: > 100 µM
- TGI [6]: > 100 µM
- TGI [7]: > 100 µM
- TGI [8]: > 100 µM
- TGI [9]: > 100 µM
- TGI [10]: > 100 µM
- TGI [11]: > 100 µM
- TGI [12]: > 100 µM
- TGI [13]: > 100 µM
- TGI [14]: > 100 µM
- TGI [15]: > 100 µM
- TGI [17]: > 100 µM
- TGI [18]: > 100 µM
- TGI [19]: > 100 µM
- TGI [20]: > 100 µM
- TGI [21]: > 100 µM
- TGI [22]: > 100 µM
- TGI [23]: > 100 µM
- TGI [24]: > 100 µM
- TGI [25]: > 100 µM
- TGI [57]: > 100 µM
- TGI [26]: > 100 µM
- TGI [58]: > 100 µM
- TGI [27]: > 100 µM
- TGI [28]: > 100 µM
- TGI [29]: > 100 µM
- TGI [30]: > 100 µM
- TGI [31]: > 100 µM
- TGI [32]: > 100 µM
- TGI [33]: > 100 µM
- TGI [34]: > 100 µM
- TGI [35]: > 100 µM
- TGI [59]: > 100 µM
- TGI [36]: > 100 µM
- TGI [37]: > 100 µM
- TGI [38]: > 100 µM
- TGI [39]: > 100 µM
- TGI [40]: > 100 µM
- TGI [41]: > 100 µM
- TGI [42]: > 100 µM
- TGI [43]: > 100 µM
- TGI [45]: > 100 µM
- TGI [46]: > 100 µM
- TGI [47]: > 100 µM
- TGI [48]: > 100 µM
- TGI [49]: > 100 µM
- TGI [50]: > 100 µM
- TGI [51]: > 100 µM
- TGI [52]: > 100 µM
- TGI [53]: > 100 µM
- TGI [54]: > 100 µM
- TGI [55]: > 100 µM

SMILES: O=C1C(c2ccccc2)=[N+]([O-])c2ccccc21
- TGI [2]: 4.88 µM
- TGI [3]: 22.3 µM
- TGI [56]: 23.5 µM
- TGI [4]: 32.6 µM
- TGI [5]: 27.4 µM
- TGI [6]: 34 µM
- TGI [7]: 32.7 µM
- TGI [8]: 37.9 µM
- TGI [9]: 34.1 µM
- TGI [10]: 36.6 µM
- TGI [11]: 15.3 µM
- TGI [12]: 32.6 µM
- TGI [13]: 42.2 µM
- TGI [14]: 35.4 µM
- TGI [15]: 38.5 µM
- TGI [16]: 33.2 µM
- TGI [17]: 14.2 µM
- TGI [19]: 29.7 µM
- TGI [20]: 26.1 µM
- TGI [21]: 36.3 µM
- TGI [22]: 28.3 µM
- TGI [24]: 48.7 µM
- TGI [26]: 31.4 µM
- TGI [58]: > 100 µM
- TGI [27]: 29.1 µM
- TGI [28]: 29.7 µM
- TGI [29]: 25.4 µM
- TGI [30]: 27 µM
- TGI [31]: 11.2 µM
- TGI [32]: 38.8 µM
- TGI [33]: 28.7 µM
- TGI [34]: 32.8 µM
- TGI [35]: 33.6 µM
- TGI [59]: 34.2 µM
- TGI [36]: 37.4 µM
- TGI [37]: 82.9 µM
- TGI [38]: 37.8 µM
- TGI [39]: 8.34 µM
- TGI [40]: 12.8 µM
- TGI [41]: 29.5 µM
- TGI [42]: 32.4 µM
- TGI [43]: 23.3 µM
- TGI [44]: 7.25 µM
- TGI [45]: 47.2 µM
- TGI [46]: 37.5 µM
- TGI [47]: > 100 µM
- TGI [48]: 37.5 µM
- TGI [49]: 43.1 µM
- TGI [50]: 42.1 µM
- TGI [51]: 27.3 µM
- TGI [52]: 20.7 µM
- TGI [53]: 55.2 µM
- TGI [54]: 56.9 µM
- TGI [55]: 37.4 µM
